In patent US5149701A, “C-31 methylated FR-900520 cyclic hemiketal immunosuppressant agents” (Merck & Co., Inc., priority 1991, dated 1992):
“And” between values parts separate entries of the source, which are not always exact repeats. Equal entries are not always repeated. “Also recorded” adds a separate entry of the source. Where two headings read alike, the source gives them in different places.

Columns and labels:
[1] = molecular target: T1, 31-O-desmethylimmunomycin O-methyltransferase (DIMT) (Streptomyces hygroscopicus, UniProt Q9KID5); test: S-adenosyl-L-methionine:31-O-desmethylimmunomycin O-methyltransferase (DIMT) assay; assay type: biochemical, Streptomyces hygroscopicus var. ascomyceticus; conditions: for inhibition of DIMT activity: result in words
T1 construct: about 32 kDa; monomer by gel filtration
T1 sequence (Q9KID5 1-260): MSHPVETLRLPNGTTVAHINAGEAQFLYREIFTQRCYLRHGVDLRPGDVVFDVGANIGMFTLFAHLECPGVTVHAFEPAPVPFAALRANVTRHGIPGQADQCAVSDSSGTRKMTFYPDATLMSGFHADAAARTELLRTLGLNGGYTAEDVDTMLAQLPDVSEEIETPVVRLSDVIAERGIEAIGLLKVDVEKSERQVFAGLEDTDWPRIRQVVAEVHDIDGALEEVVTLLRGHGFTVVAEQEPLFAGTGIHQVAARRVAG
Method: The assay was carried out in 1 ml. mixture containing 0.025 mM 31-desmethylimmunomycin, 1 mM MgSO4 and different quantities of the enzyme source in 50 mM phosphate buffer, pH 7.5. Reaction was initiated by the addition of 1 nmole of ^14 C-SAM (S-adenosyl-L-[methyl-^14 C] methionine with the specific activity of 46 mCi/mmole. Incubation of the complete mixture was carried out at 34° C. for 20 minutes and the reaction was terminated by the addition of ethyl acetate. Product of the reaction was extracted with 2 ml of ethyl acetate and 1 ml of the extract was used for TLC and HPLC analysis. For the analysis of the radioactive reaction product (immunomycin), the ethyl acetate extract was spiked with the standard immunomycin and subjected to the TLC with a plate having plastic support. The plastic sheet was developed in chloroform:methanol (9:1) and area showing standard immunomycin under UV-light was cut and the radioactivity in the cut-strip was measured. The amount of the product formed was calculated from the measured radioactivity. For the HPLC analysis of the product of the enzyme reaction, several enzymatic reaction mixtures were pooled and the extract was subjected to the TLC analysis as above. The area on the silica gel plate showing the band having an Rf value identical with the standard immunomycin was scraped and eluted with ethyl acetate. The ethyl acetate extract was washed with water, dried under nitrogen and the residue was subjected to the HPLC analysis on Partisil 5-ODS-3 column with acetonitrile:water:phosphoric acid (65:35:0.1) as the eluting solvent. One milliliter fractions were collected and a portion of each fraction was examined for the radioactivity.
Examination of the optimal temperature, pH and metal requirement of the DIMT activity was carried out on the enzyme preparation obtained from DEAE-Sepharose column. For kinetic analysis, a preparation which had been purified through a second MonoQ column chromatography was utilized.

[2] = tested on: mouse T lymphocytes stimulated with ionomycin plus PMA; test: T-cell proliferation assay (ionomycin plus PMA induced T-cell stimulation); assay type: cell-based
Method: The principle of this assay, as described in J. Immunology, Vol. 144, pp. 251-258 (1990) by F. Dumont et al, is to measure the proliferation of mouse T lymphocytes stimulated with the combination of ionomycin plus PMA. A positive sample e.g. FK-506, in this assay will inhibit T-cell proliferation, as indicated by reduced tritiated thymidine uptake.
Purified Compound I, as prepared by HPLC above, was dissolved in absolute ethanol at 1 mg/ml.
Spleens from C57B1/6 mice were taken under sterile conditions and gently dissociated in ice-cold RPMI 1640 culture medium (GIBCO, Grand Island, N.Y.) supplemented with 10% heat-inactivated fetal calf serum (GIBCO). Cells were pelleted by centrifugation at 1500 rpm for 8 minutes. Contaminating red cells were removed by treating the pellet with ammonium chloride lysing buffer (GIBCO) for 2 minutes at 4° C. Cold medium was added and cells were again centrifuged at 1500 rpm for 8 minutes. T lymphocytes were then isolated by separation of the cell suspension on nylon wool columns as follows: Nylon wool columns were prepared by packing approximately 4 grams of washed and dried nylon wool into 20 ml plastic syringes. The columns were sterilized by autoclaving at 250° F. for 30 minutes. Nylon wool columns were wetted with warm (37° C.) culture medium and rinsed with the same medium. Washed spleen cells resuspended in warm medium were slowly applied to the nylon wool. The columns were then incubated in an upright position at 37° C. for 1 hour. Non-adherent T lymphocytes were eluted from the columns with warm culture medium and the cell suspensions were spun as above.
Purified T lymphocytes were resuspended at 2.5×10^5 cells/ml in complete culture medium composed of RPMI 1640 medium with 10% heat-inactivated fetal calf serum, […], 1 mM sodium pyruvate, 2×10^-5 M 2-mercaptoethanol and 50 μg/ml gentamycin. Ionomycin was added at 250 ng/ml and PMA at 10 ng/ml. The cell suspension was immediately distributed into 96 well flat-bottom microculture plates (Costar) at 200 μl/well. The control, being the medium without test drug, and various below-indicated dilutions of the sample (above-describedpurified Compound I) to be tested were then added in triplicate wells at 20 μl/well. FR-900506 was used as a standard. The culture plates were then incubated at 37° C. in a humidified atmosphere of 5% CO2 -95% air for 44 hours. The proliferation of T lymphocytes was assessed by measurement of tritiated thymidine incorporation. After 44 hours of culturing, the cells were pulse-labelled with 2 μCi/well of tritiated thymidine (NEN, Cambridge, Mass.). After another 4 hours of incubation, cultures were harvested on glass fiber filters using a multiple sample harvester. Radioactivity of filter discs corresponding to individual wells was measured by standard liquid scintillation counting methods (Betacounter). Mean counts per minute of replicate wells were calculated and the results expressed as percent inhibition of tritiated thymidine uptake (proliferation) as follows: [formula]
1. Mouse T cell cultures were pulsed with ^3 H-thymidine for 4 hours prior to harvesting at 48 hours.

[3] = Physical characteristics of Compound I; assay type: physicochemical; conditions: methanol
[4] = reputed, EPO Publication No. 0184162; cited from earlier work
[5] = Mus musculus, T-lymphocyte, Example 3, HPLC purified samples, same set of experiments, read-out: IC50, biological activity

For `CC[C@@H]1/C=C(\C)C[C@H](C)C[C@H](OC)[C@H]2O[C@@](O)(C(=O)C(=O)N3CCCC[C@H]3C(=O)O[C@H](/C(C)=C/[C@@H]3CC[C@@H](O)[C@H](O)C3)[C@H](C)[C@@H](O)CC1=O)[C@H](C)C[C@@H]2OC` [31-O-desmethylimmunomycin], the “apparent Vmax of DIMT” value ([1]; 31-O-desmethylimmunomycin variable substrate, 40 uM SAM, Lineweaver-Burk) was 45.5 nmol/h/mg.

In the case of `CC[C@@H]1C=C2COC1(O)C[C@H](O)[C@@H](C)[C@@H](/C(C)=C/[C@@H]1CC[C@@H](O)[C@H](OC)C1)OC(=O)[C@@H]1CCCCN1C(=O)C(=O)[C@]1(O)O[C@H]([C@@H](OC)C[C@@H](C)C2)[C@@H](OC)C[C@H]1C` [Compound II], the IC50 [2, 5] is reported as ~6 nM and the “activity in the T-cell proliferation assay” value ([2]; result in words) is reported as “positive inhibition of T-cell activation; also recorded: positive results”.

With `CC[C@@H]1C=C2COC1(O)C[C@H](O)[C@@H](C)[C@@H](/C(C)=C/[C@@H]1CC[C@@H](O)[C@H](O)C1)OC(=O)[C@@H]1CCCCN1C(=O)C(=O)[C@]1(O)O[C@H]([C@@H](OC)C[C@@H](C)C2)[C@@H](OC)C[C@H]1C` [Compound I] the “effect of IL-2 on the inhibition of T-cell proliferation” value ([2]; 50 units/ml recombinant IL-2 added at the initiation of culture) was “reversed”, the inhibition at 0.0025 µM ([2]; Mus musculus, T-lymphocyte, 2.5 nM, splenic T-cells, ionomycin + PMA, 48 hours, read-out: Percent of Inhibition of tritiated thymidine uptake (proliferation)) was 0% and the inhibition at 0.0049 µM ([2]; Mus musculus, T-lymphocyte, 4.9 nM, splenic T-cells, ionomycin + PMA, 48 hours, read-out: Percent of Inhibition of tritiated thymidine uptake (proliferation)) was 0%. For the same compound, the inhibition at 0.0099 µM ([2]; Mus musculus, T-lymphocyte, 9.9 nM, splenic T-cells, ionomycin + PMA, 48 hours, read-out: Percent of Inhibition of tritiated thymidine uptake (proliferation)) was 39%, the inhibition at 0.0197 µM ([2]; Mus musculus, T-lymphocyte, 19.7 nM, splenic T-cells, ionomycin + PMA, 48 hours, read-out: Percent of Inhibition of tritiated thymidine uptake (proliferation)) was 65% and the inhibition at 0.0394 µM ([2]; Mus musculus, T-lymphocyte, 39.4 nM, splenic T-cells, ionomycin + PMA, 48 hours, read-out: Percent of Inhibition of tritiated thymidine uptake (proliferation)) was 89%. The inhibition at 0.0788 µM ([2]; Mus musculus, T-lymphocyte, 78.8 nM, splenic T-cells, ionomycin + PMA, 48 hours, read-out: Percent of Inhibition of tritiated thymidine uptake (proliferation)) was 95%, the inhibition at 0.1576 µM ([2]; Mus musculus, T-lymphocyte, 157.6 nM, splenic T-cells, ionomycin + PMA, 48 hours, read-out: Percent of Inhibition of tritiated thymidine uptake (proliferation)) was 98% and the inhibition at 0.3152 µM ([2]; Mus musculus, T-lymphocyte, 315.2 nM, splenic T-cells, ionomycin + PMA, 48 hours, read-out: Percent of Inhibition of tritiated thymidine uptake (proliferation)) was 98%. The IC50 [2, 5] was ~11 nM, the IC50 ([2]; Mus musculus, T-lymphocyte, Example 4, table notes, read-out: IC50) was 0.0115 µg/mL and 14.5 nM and the IC50 ([2]; Mus musculus, T-lymphocyte, generally in the range, read-out: IC50, general range) was 10 to 18 nM. For the same compound, the Solubility [3] was “Solubility in methanol”.

For `O=C(O)CN(CCN(CC(=O)O)CC(=O)O)CC(=O)O` [EDTA], the “inhibition of DIMT activity” value [1] was “completely inhibited; also recorded: major inhibition”.

For `C=CC[C@@H]1/C=C(\C)C[C@H](C)C[C@H](OC)[C@H]2O[C@@](O)(C(=O)C(=O)N3CCCC[C@H]3C(=O)O[C@H](/C(C)=C/[C@@H]3CC[C@@H](O)[C@H](OC)C3)[C@H](C)[C@@H](O)CC1=O)[C@H](C)C[C@@H]2OC` [FR-900506, reference compound], the inhibition at 0.01 µg/mL ([2]; Mus musculus, T-lymphocyte, read-out: inhibition of T-cell proliferation by the standard) is listed as 99% and the “times more effective than cyclosporin” value [4] is listed as 100 times.

In the case of `CC[C@@H]1/C=C(\C)C[C@H](C)C[C@H](OC)[C@H]2O[C@@](O)(C(=O)C(=O)N3CCCC[C@H]3C(=O)O[C@H](/C(C)=C/[C@@H]3CC[C@@H](O)[C@H](OC)C3)[C@H](C)[C@@H](O)CC1=O)[C@H](C)C[C@@H]2OC` [FR-900520, 17-Ethyl-1,14-dihydroxy-12-[2-(4-hydroxy-3-methoxycyclohexyl)-1-methylvinyl]-23-25-dimethoxy-13,19,21,27-tetramethyl-11,28-dioxa-4-azatricyclo [22.3.1.0^4,9]octacos-18-ene-2,3,10,16-tetraone], the IC50 [2, 5] is reported as ~1 nM.

With `Nc1ncnc2c1ncn2[C@@H]1O[C@H](CSCC[C@H](N)C(=O)O)[C@@H](O)[C@H]1O` [S-adenosyl-homocysteine (SAH), S-adenosyl-homocysteine] the “inhibition of DIMT activity” value [1] was “major inhibition”.

For `N.N.O=S(=O)(O)O` [ammonium sulfate], the “inhibition of DIMT activity” value [1] was “inhibited”.

In the case of `Nc1ncnc2c1ncn2[C@@H]1O[C@H](C[C@@H](N)CC[C@H](N)C(=O)O)[C@@H](O)[C@H]1O` [sinefungin], the “inhibition of DIMT activity” value [1] is reported as “major inhibition”.
